According to PubChem BioAssay AID179 (DTP/NCI, 2004):
The source made the active and inactive calls.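 The calls were made as follows: active = compounds giving half or more protection of infected cells from virus-caused growth loss, again on retest; inactive = the rest.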 Where a SMILES comes first, the peptide text is derived from it. Bridges are numbered along the chain shown (N, C = ends). Roman numbers before positions name the chains, in order. The star is where a group is joined. Cbz = O=C(OCc1ccccc1)*

Test system: CEM cells HIV-1 protection, formazan growth assay
Assay: NCI AIDS Antiviral Assay
Conditions: for IC50: measured here: growth of uninfected CEM cells
How it was run: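 Steps: treat uninfected and HIV-1-infected human CEM cells at five drug levels; quantify growth by soluble formazan; retest any compound reaching 50% protection; classify actives from the retest.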

| Compound | EC50 [µM] | IC50 [µM] | outcome |
| --- | --- | --- | --- |
| CCOC(=O)Cc1c(Cc2[nH]c(C(=O)OCc3ccccc3)c(CC(=O)OCC)c2CC(=O)OCC)[nH]c(C(=O)OCc2ccccc2)c1CC(=O)OCC | > 5.01 | > 5.01 |  |
| CCOC(=O)c1[nH]n(-c2ccccc2)c(=O)c1/C=N/C(=S)NCCc1ccc(OC)c(OC)c1 | > 200 | 51.3 |  |
| COc1ccc(C)[n+]([O-])n1 | > 200 | > 200 |  |
| COc1cc(/C=C2\CCC(C)/C(=C\c3cc(OC)c(OC)c(OC)c3)C2=O)cc(OC)c1OC (stereo not drawn) | > 200 | 7.24 |  |
| CC(NC(C#N)CC12CC3CC(CC(C3)C1)C2)c1ccccc1 (stereo not drawn) | > 200 | 41.7 |  |
| CCN(CC)Cc1ccccc1CC(=O)N1c2ccccc2C(=O)Nc2cccnc21 | > 200 | > 200 |  |
| N#Cc1cnc2nc1NCCCCCCC2 | > 204 | 132 |  |
| COP(=O)(OC)C(N)CCSC (stereo not drawn) | > 200 | > 200 |  |
| O=C(Nc1ccc(Cl)cc1)NC(O)C(Cl)(Cl)Cl (stereo not drawn) | > 200 | 148 |  |
| COC(=O)CC(=O)C=P(c1ccccc1)(c1ccccc1)c1ccccc1 | > 347 | 20.4 |  |
| NC(CC1=CS(=O)(=O)c2ccc(Cl)cc21)C(=O)O (stereo not drawn) | > 200 | > 200 |  |
| N#C/C(=C\c1ccc(C#N)cc1)c1ccccc1 | > 11.7 | > 11.7 |  |
| Nc1cc2c(cc1-n1cccc1)oc1ccccc12 | > 200 | 19.5 |  |
| NC(=N/N=C(/c1ccccc1)c1ccc(N)cc1)/C(N)=N\N=C(/c1ccccc1)c1ccc(N)cc1 |  |  | inactive |
| NC(=O)C(F)(F)C(N)=O | > 200 | > 200 |  |
| CSCCCNC(=O)c1csc([C@@H](CSC)NC(=O)CCNC(=O)[C@@H](NC(=O)OCC(Br)(Br)Br)C(C)O)n1 (stereo partly drawn) | > 166 | > 166 |  |
| CC1(C)CN=C(c2ccc3ccccc3c2O)N1 | > 200 | > 200 |  |
| O=C(Cc1ccccc1)Nc1ccccc1Cl | > 204 | > 204 |  |
| CC1(C)COC(c2cccnc2/C=N/O)=N1 | > 1150 | > 200 |  |
| CC(C)c1cccc(C(C)C)c1NC(=O)/C(CC(=O)CC(c1ccccc1)c1c(O)c2ccccc2oc1=O)=N/O (stereo not drawn) | > 89.1 | > 89.1 |  |
| Brc1ccc(N=c2nc3ccccn3n3nc(-c4ccccc4)cc23)cc1 | > 24 | > 24 |  |
| O=[N+]([O-])c1ccc(SSc2ccc([N+](=O)[O-])cc2)cc1 | > 200 | 24 | inactive |

| Compound | EC50 [µM] | IC50 [µM] | outcome |
| --- | --- | --- | --- |
| CC(C)=NNc1snnc1C(N)=O | > 200 | > 200 |  |
| CCOC(=O)[C@@]12C(=O)[C@@H](C)CC[C@@H]1[C@@H](C)C[C@H]2C=C(C)C | > 200 | 110 |  |
| O=[N+]([O-])c1ccc(C2OCC3CSCN32)cc1 (stereo not drawn) | > 39.8 | > 39.8 |  |
| Nc1ccccc1C(=O)NNC(=O)c1ccccc1O | > 200 | 16.6 |  |
| O=S1Cc2ccccc2CS1 (stereo not drawn) |  |  | inactive |
| CC(C)(C)C1CCC(C[Se]c2ccc(Cl)cc2)([N+](=O)[O-])CC1 (stereo not drawn) |  |  | inactive |
| COC(=O)c1c(COC(=O)NC(C)C)c2n(c1C)CS(=O)(=O)C2 | > 200 | > 200 |  |
| Cc1nc(C)c(N2CCN(S(N)(=O)=O)CC2)c(=O)[nH]1 | > 200 | > 200 |  |
| O=[N+]([O-])/C=C/c1c[nH]c2c1ccc1ccccc12 | > 200 | 4.27 |  |
| O=[N+]([O-])c1cccc2nccc(NCC(O)CO)c12 (stereo not drawn) | > 200 | 6.17 |  |
| COc1ccc2c(c1)c1c3c(ccc4ncn2c43)N(CCO)CCN=1 | > 100 | 0.178 |  |
| Cc1ccc(Cc2cc(N3CCN(c4cccc(Cl)c4)CC3)nnc2C)cc1 | > 100 | 16.6 |  |
| C=[N+](CNC(=O)CNC(=O)C(Cc1ccc([N+](=O)[O-])cc1)NC(=O)OC(C)(C)C)C(=O)CNC(=O)C(Cc1ccc([N+](=O)[O-])cc1)NC(=O)OC(C)(C)C (stereo not drawn) | > 200 | 89.1 |  |
| CC1OC(=O)C2CC3CCCCC3C(/C=C/C3CCCC(C)N3C)C12 (stereo not drawn) |  |  | inactive |
| O=C(c1cc(Cl)ccc1Cl)N1CCN(c2cccc(Cl)c2)CC1 | > 200 | 15.5 |  |
| O=C(O)CCC1CCc2cccc(OCC(=O)O)c2C1=O (stereo not drawn) |  |  | inactive |
| Cc1cc2c(cc1C)C(=O)C(=O)N2 | > 148 | > 148 |  |
| O=C1NC2c3ccccc3CCC12 (stereo not drawn) | > 1450 | > 1450 |  |
| C[C@]12CCCO[C@@H]1CC[C@@H]1[C@@H]2CC[C@]2(C)[C@@H](O)CC[C@@H]12 | > 200 | > 200 |  |
| O=[N+]([O-])c1cc(Br)cc2c1[nH]c1nc3ccc(C(F)(F)F)cc3nc12 | > 45.7 | 8.32 |  |
| S=C(N/N=C(/c1ccccc1)c1ccccn1)Nc1cccc(Cl)c1 | > 0.2 | 0.0891 |  |
| Cc1cc(-c2cccs2)oc(=O)c1NC(=O)c1ccccc1 | > 200 | 26.9 |  |

| Compound | EC50 [µM] | IC50 [µM] | outcome |
| --- | --- | --- | --- |
| O=C(NCCc1c[nH]c2ccccc12)C(F)(F)F | > 200 | > 200 |  |
| Nc1nc(N)nc(-c2ccccc2-c2nc(N)nc(N)n2)n1 | > 200 | > 200 |  |
| CC1(CO)C2CC3CN(C(=O)c4ccccc4)C(C2)[C@]31C (stereo partly drawn) |  |  | inactive |
| O=c1oc(-c2ccccc2)c(-c2ccccc2)n1-c1ccc(Br)cc1 | > 100 | > 100 |  |
| O=C(O)c1ccccc1C(=O)NC(Cc1cccc(NP(=O)(N2CC2)N2CC2)c1)C(=O)O (stereo not drawn) | 27.5 | > 200 |  |
| CNS(=O)(=O)c1c(N)ncn1C | > 1100 | > 1100 |  |
| COC(=O)/C=C1/Nc2c(n(C)c(=O)n(C)c2=O)NC1=O | > 200 | > 200 |  |
| NC(=S)N/N=C1\CCCC1C(O)(C(F)(F)Cl)C(F)(F)Cl (stereo not drawn) | > 200 | 38.9 |  |
| CC(=O)OC1CN2CC[C@H](O)C2C(O)[C@@H]1O (stereo partly drawn) | 41.7 | 1070 |  |
| O=C(/C=C\c1ccccc1)c1ccc(-c2ccc([N+](=O)[O-])cc2)cc1 |  |  | inactive |
| Oc1ccc(CCc2nc3ccccc3[nH]2)cc1 | > 200 | 42.7 |  |
| O=C(NO)NCCCl | > 200 | > 200 |  |
| O=C(Cn1c(=O)oc2ccc(C(=O)c3ccc(F)cc3)cc21)c1ccc([N+](=O)[O-])cc1 | > 200 | 25.1 |  |
| COC(=O)C1=C(\N2CCOCC2)CCCCC/C=C\1C(=O)OC | > 776 | 513 |  |
| C[Si](C)(C)CCCS(=O)(=O)O | > 200 | > 200 |  |
| OC1(c2cccnc2)c2ccccc2Oc2ccccc21 | > 200 | 79.4 |  |
| O=P(Nc1ccc(Cl)cc1)(Oc1ccccc1)N(CCCl)CCCl (stereo not drawn) | > 17.8 | 8.71 |  |
| CCOC(=O)C1(CO)CSCCSC1 | > 1050 | > 1050 |  |
| COCC1=C(NNC(=O)c2ccncc2)[C@@]2(C)C(=CC1=O)Oc1c(C(C)=O)c(O)c(C)c(O)c12 | > 200 | 47.9 |  |
| O=C1CCC(c2ccc(Cl)cc2)=NN1c1nsc2ccccc12 | > 39.8 | > 39.8 |  |
| CCOC(=O)C(Cc1ccc(O)cc1)NC(=O)C(CSSCC(NC(=O)OCc1ccccc1)C(=O)NC(Cc1ccc(O)cc1)C(=O)OCC)NC(=O)OCc1ccccc1 (stereo not drawn) (I: Cbz-Cys-Tyr-OEt / II: Cbz-Cys-Tyr-OEt; disulfide I:1-II:1; configuration not given here) | > 100 | 15.5 |  |
| C[C@]12CC[C@H]3[C@@H](CC=C4C[C@@H](O)CC[C@@]43C)[C@@H]1CC[C@@H]2N(CCO)CCO | > 200 | 60.3 |  |

| Compound | EC50 [µM] | IC50 [µM] | outcome |
| --- | --- | --- | --- |
| O=C(NCCCCl)c1c(O)c2ccccc2[nH]c1=O | > 200 | 81.3 |  |
| Cc1ccc2c(c1)NC(=O)C(N=[N+]=[N-])(c1ccccc1)C2=O (stereo not drawn) | > 200 | 49 |  |
| CC1CCc2[nH]nc(CC3CC(=O)NC(=O)C3)c2C1 (stereo not drawn) | > 200 | > 200 |  |
| NC1=NN(c2ccccc2)C(=O)C1C(=O)C(=O)Nc1ccc(Cl)cc1 (stereo not drawn) | > 347 | 251 |  |
| CCCN=C(N)NC#N | > 708 | > 708 |  |
| N=C(N)SCCc1ccncc1 | > 200 | 155 |  |
| O=C(Nc1ccc(Cl)cc1)C(=O)C(C(=O)c1ccccc1-c1ccccc1)C1OC(=O)c2ccccc21 (stereo not drawn) | > 70.8 | 13.2 |  |
| COc1ccc2c(c1)[n+](=O)c(C(=O)CC(=O)C(=O)Nc1cccc(Cl)c1C)c(C)n2[O-] | > 100 | 46.8 |  |
| Nc1ccc(C(=O)N/C(=C\c2cccc([N+](=O)[O-])c2)c2nc3ccccc3[nH]2)cc1 |  |  | inactive |
| Cc1c2c(Cl)c3c(c(Cl)c2c(C)c2c(Cl)c4c(c(Cl)c12)C(c1ccccc1)(c1ccccc1)C4(c1ccccc1)c1ccccc1)C(c1ccccc1)(c1ccccc1)C3(c1ccccc1)c1ccccc1 | > 100 | > 100 |  |
| CS(=O)(=O)CCC1CCC(=O)O1 (stereo not drawn) | > 200 | 182 |  |
| COc1ccc(N=Nc2ccc3oc(=O)c(C(=O)Nc4ccccc4)cc3c2)cc1 | > 200 | 33.1 |  |
| Cc1ccc(NC(=O)NC(=O)c2ccc([N+](=O)[O-])cc2[N+](=O)[O-])cc1Oc1ncc(Cl)cn1 |  |  | inactive |
| COc1c(OC)c(OC)c2c(=O)c(OC)c(-c3ccc4c(c3)OCO4)oc2c1OC | > 200 | > 200 |  |
| O=c1[nH]c2ccc(CC(=S)N3CCCCC3)cc2s1 | > 200 | 148 |  |
| C=CCOc1cc2c(cc1C(C)c1ccc(OC)cc1)OCO2 (stereo not drawn) | > 32.4 | 0.708 |  |
| Cn1c2ccccc2c2ccc3c(c21)C(=O)C(c1ccccc1)=CC3=O | > 40.7 | 29.5 |  |
| O=[N+]([O-])c1ccc(N=NN2CCCC2)cc1 | > 200 | 18.6 |  |
| Nc1ncnc2c1ncn2C1OC(CCP(=O)(O)O)C(O)C1O (stereo not drawn) | > 100 | > 100 |  |
| CCNC(=S)N/N=C/c1cc(OC)ccc1O | > 200 | 107 |  |
| CC(=O)[CH-]C(=O)c1ccccc1.CC(=O)[CH-]C(=O)c1ccccc1.CC(=O)[CH-]C(=O)c1ccccc1.[Tl+3] | > 138 | 49 |  |
| COc1cccc(-n2cccc2)c1 | > 200 | > 200 |  |
